{"source": "paper PMC13223435", "about": "“Synthesis and Antiproliferative Activity against Melanoma Cells of New Heterocyclic Hybrids Based on Pyridine and Pyrimidine Scaffolds” (Current Medicinal Chemistry, 2025)", "key": {"[1]": {"system": "human dermal fibroblasts (HDF)", "experiment": "WST-1 assay on non-tumor cells (selectivity)", "assay_type": "cell-based", "text": "The A375 malignant melanoma cell line (ECACC 88113005, Salisbury, UK) was procured from the European Collection of Authenticated Cell Cultures (ECACC). The primary culture of human dermal fibroblasts (HDF) was derived from skin according to the protocol approved by the Ethical Committee of Pomeranian Medical University in Szczecin (KB-0012/02/18). The detailed protocol of fibroblast isolation, authentication, and cell culture conditions was previously described. Both cell lines were cultivated in a humidified incubator under conditions of 5% CO2 and a temperature of 37°C, using Dulbecco’s modified Eagle’s medium (DMEM) with 4500 mg/L glucose (Sigma-Aldrich Merck Group, St. Louis, MO, USA) enriched with 10% heat-inactivated fetal bovine serum (FBS, EURx, Gdańsk, Poland), 2 mM L-glutamine (Sigma-Aldrich Merck Group, St. Louis, MO, USA), and penicillin-streptomycin solution (Sigma-Aldrich Merck Group, St. Louis, MO, USA). Regular assessments for the presence of mycoplasma were conducted using the MycoAlert® Mycoplasma Detection Kit (Lonza, Rockland, ME, USA).\nThe evaluation of the antiproliferative activity of the compounds was performed using the Cell Proliferation Reagent WST-1 assay (Roche, Germany). This assay relies on the reduction of tetrazolium salt to formazan, with the final amount of formazan proportional to the number of viable cells. In our study, A375 cells (2×10^3) and HDF (3×10^3) were initially seeded into 96-well plates and cultured in a humidified atmosphere of 5% CO2 at 37°C. 24 hours later, the culture medium was replaced with a medium containing the tested compounds for a 48-hour incubation period at specified final concentrations. […] For control purposes, cells without the tested compounds, which contained only the vehicle (DMSO), were used. Additionally, a blank sample consisting of tested compounds in a medium (without cells) was included. After the 48-hour incubation period, the WST-1 reagent was introduced and allowed to incubate with the cells for 30 minutes. The absorbance was subsequently measured at 450 nm with background correction at 620 nm using a microplate reader (Infinite 200 Pro, Tecan, Männedorf, Switzerland). Cell viability was calculated according to the following formula: [(Atest–Ablank)/ (Acontrol − Ablank)] × 100%. These measurements were conducted in triplicate for at least three independent experiments.\nFor that purpose, non-tumor HDF cells were used and the concentrations of tested compounds were increased to 200 µM (0.4% DMSO) and 500 µM (1% DMSO). Appropriate controls were prepared for higher concentrations of DMSO."}, "A375 cells [2]": {"system": "A375 cells", "experiment": "Live-cell imaging (time-lapse microscopy)", "assay_type": "cell-based", "settings": "48 h", "description": "For live-cell imaging, A375 cells were seeded into 96-well plates at a density of 2×10^3 cells per well and allowed to grow for 24 h before imaging. Next, the cell culture medium was carefully removed, and new medium containing 16b (at 2 µM and 10 µM) and 29 (at 5 µM and 10 µM) was added and the cell culture plate was placed in the imaging chamber of Agilent BioTek Lionheart FX automated microscope (Agilent Technologies, Inc., Santa Clara, CA, USA) equipped with a Plan Fluorite 20x/0.75 objective (Olympus, Nishi-Shinjuki, Tokyo, Japan), and a FLIR Blackfly BFLY-U3-23S6M camera (Teledyne FLIR, Wilsonville, OR, USA). The temperature in the imaging chamber was set to 37°C and CO2 level to 5%. The bright-field images were acquired every 5 minutes for 48 hours."}, "A375 cells [3]": {"system": "A375 cells", "experiment": "Cell cycle analysis (PI staining, Muse)", "assay_type": "cell-based", "settings": "5 h", "description": "For cell cycle analysis, A375 cells were initially plated in 6-well plates at a density of 1×10^5 cells per well and allowed to culture for 24 hours. Following this incubation period, the culture medium was replaced with fresh medium containing 16b and 29 at final concentrations of 1, 5, and 10 µM, after which the cells were incubated for an additional 5 hours. For control purposes, cells cultured in a medium containing 0.2% DMSO without treatment were utilized. The experimental procedure involved several steps: initially, the cells were rinsed with PBS, and then collected via trypsinization. The resulting cell pellet underwent another PBS wash before being fixed with 70% cold ethanol (Chempur, Piekary Śląskie, Polska) at -20°C for at least 3 hours. Before analysis, the ethanol-fixed cells were centrifuged, washed again with PBS, and then treated with Muse Cell Cycle Reagent (Luminex Corporation, Austin, TX, USA), which includes propidium iodide (PI) and RNAse. This staining process was carried out for 30 minutes at room temperature in the absence of light. The assay relies on PI-based staining of DNA content to differentiate and quantify the percentage of cells in the G0/G1, S, and G2/M phases of the cell cycle. The analysis was performed using the Muse Cell Analyzer (Luminex Corporation, Austin, TX, USA). The obtained findings were derived from a minimum of three independent experiments."}, "tubulin": {"target": "T1, tubulin (Sus scrofa, UniProt P02550+P02554)", "T1 construct": "purchased Cytoskeleton, Denver, CO, USA", "T1 sequence (P02554 whole entry)": "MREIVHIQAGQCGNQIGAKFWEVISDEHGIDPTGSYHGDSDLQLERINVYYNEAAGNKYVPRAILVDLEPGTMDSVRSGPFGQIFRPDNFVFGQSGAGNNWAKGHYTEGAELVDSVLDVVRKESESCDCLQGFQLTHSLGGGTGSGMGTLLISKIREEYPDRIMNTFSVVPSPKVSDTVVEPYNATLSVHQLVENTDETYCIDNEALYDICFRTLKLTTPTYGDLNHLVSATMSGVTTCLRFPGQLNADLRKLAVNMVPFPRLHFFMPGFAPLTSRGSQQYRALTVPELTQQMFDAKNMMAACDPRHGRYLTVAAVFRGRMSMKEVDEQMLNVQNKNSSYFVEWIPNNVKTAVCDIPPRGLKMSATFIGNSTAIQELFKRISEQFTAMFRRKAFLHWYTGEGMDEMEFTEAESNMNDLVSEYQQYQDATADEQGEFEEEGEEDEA", "T1 sequence (P02550 whole entry)": "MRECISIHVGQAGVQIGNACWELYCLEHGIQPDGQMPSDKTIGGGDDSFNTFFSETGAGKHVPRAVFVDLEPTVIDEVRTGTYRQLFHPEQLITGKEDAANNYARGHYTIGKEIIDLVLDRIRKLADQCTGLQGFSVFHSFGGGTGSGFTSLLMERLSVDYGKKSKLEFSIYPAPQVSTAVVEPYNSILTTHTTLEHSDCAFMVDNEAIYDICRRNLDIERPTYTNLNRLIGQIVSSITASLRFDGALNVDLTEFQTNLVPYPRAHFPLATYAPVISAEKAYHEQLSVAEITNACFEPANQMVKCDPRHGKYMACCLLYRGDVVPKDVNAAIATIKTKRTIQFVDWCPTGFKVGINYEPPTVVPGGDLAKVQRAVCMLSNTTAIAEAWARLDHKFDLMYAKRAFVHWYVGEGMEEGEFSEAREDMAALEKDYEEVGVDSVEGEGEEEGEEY", "experiment": "Cell free tubulin polymerization assay (fluorescence-based)", "assay_type": "biochemical", "description": "The tubulin polymerization process was evaluated using a tubulin (>99% pure) and fluorescence-based tubulin polymerization kit (Cytoskeleton, Denver, CO, USA). The effects of compounds 16b and 29 (at final concentrations of 1, 10, 50, 100 µM) on tubulin polymerization were evaluated in cell-free conditions. Paclitaxel (PTX) and vinblastine (VBL) (3 µM) were used as references, and DMSO (0.2%) was used as the vehicle control. This assay tracks the process of tubulin polymerization through an increase in fluorescence resulting from the addition of a fluorescence reporter to microtubules as polymerization occurs. After incubating the tested compounds at 37°C for 1 minute, the icy tubulin reaction mixture (2 mg/mL tubulin, 1.0 mM GTP, 15% glycerol in buffer containing 80 mM PIPES, 2.0 mM MgCl2, 0.5 mM EGTA, pH 6.9, and 10 µM fluorescent reporter) was added to the samples, which were then mixed and monitored using a spectrophotometric microplate reader (Infinite 200 Pro, Tecan) at 1-minute intervals for 90 minutes at 37°C (excitation: 360 nm, emission: 450 nm). The software installed on the plate reader was used to compute the maximum slope (Vmax) of the growth phase, measured in RFU/min, as outlined in the manufacturer's instructions. Each polymerization curve's Vmax was then standardized against the control curve's Vmax. The IC50 values were determined using an online tool (AAT Bioquest, Inc., Quest Graph™ IC50 Calculator ((v.1). Retrieved from https://www.aatbio.com/tools/IC50-calculator-v1, accessed on: 2024, May 6)."}}, "data": [{"smiles": "COc1cc(Cn2cc(-c3cccs3)ccc2=S)cc(OC)c1OC", "note": "[Compound 16b]", "values": [{"measurement": "IC50", "setting": "[1]; Fibroblast, 48 hours of treatment, normal human dermal fibroblasts", "value": "120 ± 8.42", "unit": "µM"}, {"measurement": "Selectivity index (SI)", "setting": "[1]; IC50 normal cells (HDF)/IC50 cancer cell (A375)", "value": 65.08}, {"measurement": "time-lapse observation of A375 cells", "setting": "A375 cells [2]; 2 µM", "value": "cells also divided, but less effectively, divisions lasted longer, and finally, the confluence was lower than that in the control well"}, {"measurement": "time-lapse observation of A375 cells", "setting": "A375 cells [2]; 10 µM", "value": "arrested mitosis resulted in mitotic slippage, leading to apoptosis or formation of binucleated cells"}, {"measurement": "percentage of A375 cells in the G2/M phase", "setting": "A375 cells [3]; 1 µM", "value": "33.79 ± 0.46", "unit": "%"}, {"measurement": "percentage of A375 cells in the G2/M phase", "setting": "A375 cells [3]; 5 µM", "value": "39.33 ± 5.27", "unit": "%"}, {"measurement": "percentage of A375 cells in the G2/M phase", "setting": "A375 cells [3]; 10 µM", "value": "44.52 ± 4.00", "unit": "%"}, {"measurement": "effect on tubulin polymerization", "setting": "tubulin; 100 µM", "value": "acted as tubulin polymerization inhibitors"}, {"measurement": "IC50", "setting": "tubulin; Vmax normalised to control, read-out: tubulin polymerization inhibition IC50", "value": "37.3 ± 10.9", "unit": "µM"}]}]}
